Values of other authors in paper PMC12080252, “Daphnia magna as an Alternative Model for (Simultaneous) Bioaccumulation and Chronic Toxicity Assessment—Controlled Exposure Study Indicates High Hazard of Heterocyclic PAHs” (Environmental Science & Technology, 2025).
Several values for one entry are separate records, joined by “and”; a condition that tells them apart may be missing. Equal values may be shown once. Read-outs that look alike come from different tables or passages of the source.

What was measured:
[1] = Table S10; ref SI ref 23 (UK Environment Agency Report); cited from earlier work
fish = details: cited from earlier work
D. magna or D. pulex = details: cited from earlier work; for accumulation in water fleas: compared with fish; for BCF (M of several values): ref SI refs 4, 5
[2] = system: aryl hydrocarbon receptor (AhR); details: cited from earlier work
[3] = D. magna or D. pulex, ref SI refs 8, 10

Clc1cc2c(oc3c(Cl)c(Cl)c(Cl)c(Cl)c32)c(Cl)c1Cl [1,2,3,4,6,7,8-Heptachloro dibenzofuran]
log KOW [1]: 7.40 | half-life (fish; fish, Table S10, ref SI ref 23): 127.97 h | log BCFL5% (fish; fish, Table S10, ref SI ref 23): 3.16 | log k2 (fish; fish, Table S10, ref SI ref 23): -2.27 h-1

Clc1cc2c(c(Cl)c1Cl)Oc1cc(Cl)c(Cl)c(Cl)c1O2 [1,2,3,6,7,8-Hexachloro dibenzo-p-dioxin]
log KOW [1]: 7.30 | half-life (fish; fish, Table S10, ref SI ref 23): 332.71 h | log BCFL5% (fish; fish, Table S10, ref SI ref 23): 3.64 | log k2 (fish; fish, Table S10, ref SI ref 23): -2.68 h-1

Clc1cc2c(oc3cc(Cl)c(Cl)c(Cl)c32)c(Cl)c1Cl [1,2,3,6,7,8-Hexachloro dibenzofuran]
log KOW [1]: 7.30 | half-life (fish; fish, Table S10, ref SI ref 23): 213.28 h | log BCFL5% (fish; fish, Table S10, ref SI ref 23): 3.65 | log k2 (fish; fish, Table S10, ref SI ref 23): -2.49 h-1

Clc1cc2c(cc1Cl)Oc1c(cc(Cl)c(Cl)c1Cl)O2 [1,2,3,7,8-Pentachlorodibenzo-p-dioxin]
log KOW [1]: 6.64 | half-life (fish; fish, Table S10, ref SI ref 23): 554.52 h | log BCFL5% (fish; fish, Table S10, ref SI ref 23): 3.97 | log k2 (fish; fish, Table S10, ref SI ref 23): -2.90 h-1

Brc1cc(Br)c(-c2c(Br)cc(Br)cc2Br)c(Br)c1 [2,2',4,4',6,6'-hexa bromobiphenyl]
log KOW [1]: 7.20 | half-life (fish; fish, Table S10, ref SI ref 23): 2343.03 h | log BCFL5% (fish; fish, Table S10, ref SI ref 23): 4.55 | log k2 (fish; fish, Table S10, ref SI ref 23): -3.53 h-1

Brc1ccc(Br)c(-c2cc(Br)ccc2Br)c1 [2,2',5,5'-tetra bromobiphenyl]
log KOW [1]: 6.50 | half-life (fish; fish, Table S10, ref SI ref 23): 1697.50 h | log BCFL5% (fish; fish, Table S10, ref SI ref 23): 4.86 | log k2 (fish; fish, Table S10, ref SI ref 23): -3.39 h-1

Clc1cc2c(oc3c(Cl)c(Cl)c(Cl)cc32)c(Cl)c1Cl [2,3,4,6,7,8-Hexachloro dibenzofuran]
log KOW [1]: 7.30 | half-life (fish; fish, Table S10, ref SI ref 23): 166.36 h | log BCFL5% (fish; fish, Table S10, ref SI ref 23): 3.69 | log k2 (fish; fish, Table S10, ref SI ref 23): -2.38 h-1

Clc1cc2oc3c(Cl)c(Cl)c(Cl)cc3c2cc1Cl [2,3,4,7,8-Pentachloro dibenzofuran]
log KOW [1]: 6.64

Clc1cc2oc3cc(Cl)c(Cl)cc3c2cc1Cl [2,3,7,8-Tetrachlorodibenzo furan]
log KOW [1]: 6.53 | half-life (fish; fish, Table S10, ref SI ref 23): 57.36 h | log BCFL5% (fish; fish, Table S10, ref SI ref 23): 2.89 | log k2 (fish; fish, Table S10, ref SI ref 23): -1.92 h-1

Brc1cc(Br)c(-c2ccccc2)c(Br)c1 [2,4,6-tri bromobiphenyl]
log KOW [1]: 6.03

Cc1c2ccccc2cc2ccccc12 [9-methyl-anthracene]
half-life (D. magna or D. pulex; [3]): 4.8 h | log k2 (D. magna or D. pulex; [3]): -0.84 h-1

c1ccc2c(c1)ccc1c3ccccc3sc21 [Benzo[b]naphtho[2,1-d]thiophene]
accumulation in water fleas (D. magna or D. pulex): accumulate even more in water fleas

c1ccc2c(c1)Cc1c-2ccc2ccccc12 [Benzofluorene, benzo[a]fluorene]
body burden (D. magna or D. pulex; D. magna): 17600 µg/kg | log BAF*L5% (D. magna or D. pulex; D. magna): 4.09 L kg^-1 lipid

CC(C)OC(=O)C(C(=O)OC(C)C)=C1SCCS1 [Bis(1-methylethyl)ester, 1,3-dithiolan-2-ylidene propanedioic acid]
log KOW [1]: 2.88 | half-life (fish; fish, Table S10, ref SI ref 23): 3.65 h and 2.17 h | log BCFL5% (fish; fish, Table S10, ref SI ref 23): 1.45 and 1.59 and 1.65 | log k2 (fish; fish, Table S10, ref SI ref 23): -0.72 h-1 and -0.49 h-1

CCCCCCCCCCC(C)c1ccc(S(=O)(=O)O)cc1 (stereo not shown) [C-12-2-LAS]
log KOW [1]: 4.71 | half-life (fish; fish, Table S10, ref SI ref 23): 23.77 h | log BCFL5% (fish; fish, Table S10, ref SI ref 23): 2.16 | log k2 (fish; fish, Table S10, ref SI ref 23): -1.54 h-1

CCCCCCCC(CCCC)c1ccc(S(=O)(=O)O)cc1 (stereo not shown) [C-12-5-LAS]
log KOW [1]: 4.71 | half-life (fish; fish, Table S10, ref SI ref 23): 13.86 h | log BCFL5% (fish; fish, Table S10, ref SI ref 23): 1.00 | log k2 (fish; fish, Table S10, ref SI ref 23): -1.30 h-1

CC(C)C(C(=O)OC(C#N)c1cccc(Oc2ccccc2)c1)c1ccc(Cl)cc1 (stereo not drawn) [Cyano(3-phenoxyphenyl)methyl ester, 4-chloro-alpha-(1-methylethyl) benzeneacetic acid]
log KOW [1]: 6.20 | half-life (fish; fish, Table S10, ref SI ref 23): 75.62 h | log BCFL5% (fish; fish, Table S10, ref SI ref 23): 2.64 | log k2 (fish; fish, Table S10, ref SI ref 23): -2.04 h-1

ClC1C(Cl)C(Cl)C(Cl)C(Cl)C1Cl (stereo not shown) [Cyclohexane, 1,2,3,4,5,6-hexachloro-, (1a,2a,3B,4a,5a,6B)-]
log KOW [1]: 3.72 | half-life (fish; fish, Table S10, ref SI ref 23): 12.60 h | log BCFL5% (fish; fish, Table S10, ref SI ref 23): 2.81 | log k2 (fish; fish, Table S10, ref SI ref 23): -1.26 h-1

COc1ccc(C(c2ccc(OC)cc2)C(Cl)(Cl)Cl)cc1 [Methoxychlor]
accumulation in fish versus invertebrates (Figure 3B) (fish; in vivo): accumulating in invertebrates but not in fish

COP(=S)(OC)Oc1ccc(Cl)cc1C#N [Methyl isocyanothion]
log KOW [1]: 3.58 | half-life (fish; fish, Table S10, ref SI ref 23): 14.10 h | log BCFL5% (fish; fish, Table S10, ref SI ref 23): 2.09 | log k2 (fish; fish, Table S10, ref SI ref 23): -1.31 h-1

CC(C)Oc1cccc(NC(=O)c2ccccc2C(F)(F)F)c1 [N-[3-(1-Methylethoxy)phenyl]-2-(trifluoromethyl) benzamide]
log KOW [1]: 3.70 | half-life (fish; fish, Table S10, ref SI ref 23): 5.78 h | log BCFL5% (fish; fish, Table S10, ref SI ref 23): 1.32 | log k2 (fish; fish, Table S10, ref SI ref 23): -0.92 h-1

COP(=S)(OC)Oc1ccc(SC)c(C)c1 [O,O-Dimethyl O-[3-methyl-4-(methylthio)phenyl]ester phosphorothioic acid]
log KOW [1]: 4.17

COP(=S)(OC)Oc1c(Cl)cc(C)cc1Cl [O-(2,6-Dichloro-4-methylphenyl) O,O-dimethyl ester, Phosphorothioic acid]
log KOW [1]: 4.56 | half-life (fish; fish, Table S10, ref SI ref 23): 17.33 h | log BCFL5% (fish; fish, Table S10, ref SI ref 23): 2.36 | log k2 (fish; fish, Table S10, ref SI ref 23): -1.40 h-1

CCCCCCCCCCCCCOCCOCCOCCOCCOCCOCCOCCOCCO [Octaethylene glycol monotridecyl ether]
half-life (fish; fish, Table S10, ref SI ref 23): 1.65 h | log BCFL5% (fish; fish, Table S10, ref SI ref 23): 1.69 | log k2 (fish; fish, Table S10, ref SI ref 23): -0.38 h-1

c1ccc2nc3ccccc3cc2c1 [acridine]
AhR agonism [2]: weak to moderate aryl hydrocarbon receptor (AhR) agonists | half-life (D. magna or D. pulex; [3]): 0.32 h | log k2 (D. magna or D. pulex; [3]): 0.33 h-1

c1ccc2cc3ccccc3cc2c1 [anthracene]
AhR-mediated toxicity [2]: do not trigger AhR-mediated toxicity | BCF (M of several values) (D. magna or D. pulex; D. magna or D. pulex): 944 | half-life (D. magna or D. pulex; [3]): 1.18 h | log k2 (D. magna or D. pulex; [3]): -0.23 h-1

c1ccc2cc3c(ccc4ccccc43)cc2c1 [benz[a]anthracene]
log KOW [1]: 5.76

c1ccc2cc3c(cc2c1)sc1ccccc13 [benzo[b]naphtho[2,3-d]thiophene]
bioaccumulation in fish (fish): high bioaccumulation in fish

CC1(C)[C@H](C(=O)OCc2cccc(Oc3ccccc3)c2)[C@@H]1C=C(Cl)Cl [cis-Permethrin]
log KOW [1]: 7.43 | half-life (fish; fish, Table S10, ref SI ref 23): 36.97 h | log BCFL5% (fish; fish, Table S10, ref SI ref 23): 2.45 | log k2 (fish; fish, Table S10, ref SI ref 23): -1.73 h-1

c1ccc2c(c1)Oc1ccccc1O2 [dibenzo[1,4]dioxane]
bioaccumulation in fish (fish): high bioaccumulation in fish

c1ccc2c(c1)ccc1c3ccc4ccccc4c3[nH]c21 [dibenzocarbazole, 13H-dibenzo[a,i]carbazole]
half-life (D. magna or D. pulex; [3]): 9 h | log k2 (D. magna or D. pulex; [3]): -1.11 h-1 | accumulation in water fleas (D. magna or D. pulex): accumulate even more in water fleas | bioaccumulation in fish (fish): high bioaccumulation in fish

c1ccc2c(c1)oc1ccccc12 [dibenzofuran]
AhR agonism [2]: weak to moderate aryl hydrocarbon receptor (AhR) agonists

c1ccc2c(c1)Cc1ccccc1-2 [fluorene]
AhR-mediated toxicity [2]: do not trigger AhR-mediated toxicity

c1ccc2cnccc2c1 [isoquinoline]
half-life (D. magna or D. pulex; [3]): 0.04 h | log k2 (D. magna or D. pulex; [3]): 1.26 h-1

c1ccc2ccccc2c1 [naphthalene]
AhR-mediated toxicity [2]: do not trigger AhR-mediated toxicity | half-life (D. magna or D. pulex; [3]): 0.42 h | log k2 (D. magna or D. pulex; in vivo): 0.22 h-1

c1cc2cccc3c4cccc5cccc(c(c1)c23)c54 [perylene]
half-life (D. magna or D. pulex; [3]): 5.02 h | log k2 (D. magna or D. pulex; [3]): -0.86 h-1

c1ccc2c(c1)ccc1ccccc12 [phenanthrene]
AhR-mediated toxicity [2]: do not trigger AhR-mediated toxicity | BCF (M of several values) (D. magna or D. pulex; D. magna or D. pulex): 325 | log k2 (D. magna or D. pulex; [3]): -0.27 h-1 | half-life (D. magna or D. pulex; in vivo): 1.29 h | accumulation in fish versus invertebrates (Figure 3B) (fish; in vivo): accumulated in fish but not in Daphnia and H. azteca

ClC(Cl)=C(c1ccc(Cl)cc1)c1ccc(Cl)cc1 [pp’DDE]
BCF (M of several values) (fish; fish, ref SI refs 4, 7, 12): 54250

c1ccc2ncccc2c1 [quinoline]
BCF (M of several values) (fish; in vivo): 2.5 | log BCFL5% (fish; in vivo): 1.92

c1ccc2c(c1)Sc1ccccc1S2 [thianthrene]
bioaccumulation in fish (fish): high bioaccumulation in fish

c1ccc2c(c1)Cc1ccccc1O2 [xanthene]
AhR agonism [2]: weak to moderate aryl hydrocarbon receptor (AhR) agonists | bioaccumulation in fish (fish; in vivo): high bioaccumulation in fish

Phenol, 4-nonyl-, branched,
log KOW [1]: 5.92 | half-life (fish; fish, Table S10, ref SI ref 23): 9.90 h | log BCFL5% (fish; fish, Table S10, ref SI ref 23): 2.58 | log k2 (fish; fish, Table S10, ref SI ref 23): -1.15 h-1
